Data from the supplement of paper PMC10307832.

Assays:
Assay in all cases: relative viability (nuclei count vs DMSO), 5 days (fraction); higher = more cells survive
Nelarabine + Decitabine = compound: COc1nc(N)nc2c1ncn2[C@@H]1O[C@H](CO)[C@@H](O)[C@@H]1O [Nelarabine] + Nc1ncn([C@H]2C[C@H](O)[C@@H](CO)O2)c(=O)n1 [Decitabine] (partner 2 µM)
In short: (§1)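 Lung cancer cell lines in 1536-well plates were dosed by pin tool the day after seeding, either with one drug alone or with a fixed anchor-drug dose plus five library-drug doses (not always all listed) in √10 steps. After 5 days, cells were fixed and their nuclei stained in one step (final 0.05% Triton X-100, 1% formaldehyde, 1 ug/ml Hoechst), then counted on 4× images. Relative viability is the nuclei count in treated wells divided by that in vehicle wells. Values are medians of duplicate plates.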

Nelarabine + Olaparib = compound: COc1nc(N)nc2c1ncn2[C@@H]1O[C@H](CO)[C@@H](O)[C@@H]1O [Nelarabine] + O=C(c1cc(Cc2n[nH]c(=O)c3ccccc23)ccc1F)N1CCN(C(=O)C2CC2)CC1 [Olaparib] (partner 8 µM)
In short: as §1

Adavosertib + Pemetrexed = compound: C=CCn1c(=O)c2cnc(Nc3ccc(N4CCN(C)CC4)cc3)nc2n1-c1cccc(C(C)(C)O)n1 [Adavosertib] + Nc1nc2[nH]cc(CCc3ccc(C(=O)N[C@@H](CCC(=O)O)C(=O)O)cc3)c2c(=O)[nH]1 [Pemetrexed] (partner 0.2 µM)
In short: as §1

Nelarabine + OSI-027 = compound: COc1nc(N)nc2c1ncn2[C@@H]1O[C@H](CO)[C@@H](O)[C@@H]1O [Nelarabine] + COc1cccc2cc(-c3nc([C@H]4CC[C@H](C(=O)O)CC4)n4ncnc(N)c34)[nH]c12 [OSI-027] (partner 0.5 µM)
In short: as §1

Cell Line	relative viability (Nelarabine + Decitabine; first compound 0.01 µM)	relative viability (Nelarabine + Decitabine; first compound 0.03162 µM)	relative viability (Nelarabine + Decitabine; first compound 0.1 µM)	relative viability (Nelarabine + Decitabine; first compound 0.3162 µM)	relative viability (Nelarabine + Decitabine; first compound 1 µM)	relative viability (Nelarabine + Olaparib; first compound 0.01 µM)	relative viability (Nelarabine + Olaparib; first compound 0.03162 µM)	relative viability (Nelarabine + Olaparib; first compound 0.1 µM)	relative viability (Nelarabine + Olaparib; first compound 0.3162 µM)	relative viability (Nelarabine + Olaparib; first compound 1 µM)	relative viability (Adavosertib + Pemetrexed; first compound 0.01 µM)	relative viability (Adavosertib + Pemetrexed; first compound 0.03162 µM)	relative viability (Adavosertib + Pemetrexed; first compound 0.1 µM)	relative viability (Adavosertib + Pemetrexed; first compound 0.3162 µM)	relative viability (Nelarabine + OSI-027; first compound 0.01 µM)	relative viability (Nelarabine + OSI-027; first compound 0.03162 µM)	relative viability (Nelarabine + OSI-027; first compound 0.1 µM)	relative viability (Nelarabine + OSI-027; first compound 0.3162 µM)	relative viability (Nelarabine + OSI-027; first compound 1 µM)
NCI-H2126	0.658	0.616	0.563	0.594	0.559	1.05	0.981	0.951	0.961	0.967	0.615	0.66	0.695	0.643	0.761	0.724	0.641	0.771	0.66
HOP-62	0.214	0.194	0.23	0.182	0.229	0.479	0.315	0.283	0.368	0.458	0.311	0.285	0.283	0.224	0.981	0.866	0.971	0.941	0.838
NCI-H1648	–	0.533	–	0.616	0.441	–	0.927	–	0.889	0.714	0.595	0.719	0.814	0.483	0.237	0.282	0.264	0.256	0.281
NCI-H647	0.483	0.385	0.381	0.357	0.38	0.57	0.498	0.633	0.541	0.647	0.155	0.159	0.141	0.123	0.481	0.683	0.68	0.68	0.571
NCI-H2170	0.473	0.546	0.484	0.47	0.427	0.708	0.561	0.61	0.577	0.547	0.282	0.248	0.271	0.218	0.716	0.67	0.704	0.656	0.753
NCI-H1793	0.291	–	0.535	0.595	0.513	1.36	–	0.891	1.29	1.05	0.808	0.913	0.756	0.782	0.327	0.238	0.247	0.372	0.326
NCI-H2023	0.239	0.207	0.241	0.223	0.219	0.597	0.497	0.503	0.422	0.455	0.114	0.163	0.164	0.114	0.545	0.397	0.341	0.416	0.354
SW 1573	0.582	0.503	0.513	0.58	0.483	0.52	0.469	0.553	0.565	0.66	0.871	0.747	0.912	0.557	1.19	0.836	0.548	0.701	0.619
NCI-H441	0.214	0.222	0.23	0.231	0.22	0.5	0.518	0.561	0.677	0.697	0.235	0.265	0.275	0.225	0.535	0.497	0.592	0.782	0.647
LCLC-97TM1	–	–	0.274	0.279	0.241	–	–	0.413	0.358	0.388	0.214	0.171	0.17	0.159	0.713	0.483	0.357	0.527	0.56
NCI-H2405	0.674	0.686	0.745	0.816	0.721	0.948	0.834	0.83	0.899	0.896	–	1.1	0.899	1.05	0.722	0.66	0.471	0.632	0.624
NCI-H460	0.707	0.726	0.476	0.525	0.539	0.748	0.581	0.479	0.552	0.521	0.0616	0.0693	0.0573	0.0705	1.06	1.08	0.971	1.08	0.79
NCI-H650	0.305	0.277	0.333	0.28	0.33	0.525	0.369	0.413	0.402	0.405	0.892	1.07	0.952	0.774	0.616	0.529	0.48	0.563	0.501
NCI-H661	0.625	0.614	0.599	0.628	0.515	0.876	0.709	0.762	0.748	0.796	0.915	0.834	0.74	0.415	0.53	0.652	0.738	0.775	0.651
LK-2	0.261	–	0.272	0.341	0.319	0.689	–	0.701	0.601	0.635	0.266	0.238	0.357	0.215	0.167	–	0.159	0.178	0.162
LU99A	1.02	0.91	0.971	0.886	0.935	0.276	0.239	0.252	0.249	0.26	0.156	0.165	0.144	0.115	0.315	0.295	0.307	0.309	0.291
EPLC-272H	0.435	0.316	0.288	0.326	0.377	1.13	0.881	0.646	0.842	0.769	0.33	0.258	0.175	0.116	0.28	0.248	0.269	0.311	0.233
